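The concentration for 50% growth inhibition is given as GI50. TGI is the concentration that stops growth completely.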
How the values were obtained:
Assay in all cases: NCI-60 cell line screen, 384-well format
OVCAR-4 ovarian = system: OVCAR-4 ovarian
UO-31 renal = system: UO-31 renal
HT29 colon = system: HT29 colon
NCI-H322M lung = system: NCI-H322M lung
SN12C renal = system: SN12C renal
NCI-H226 lung = system: NCI-H226 lung
A549 NSCLC = system: A549 NSCLC
OVCAR-3 ovarian = system: OVCAR-3 ovarian
HCC-2998 colon = system: HCC-2998 colon
SK-MEL-5 melanoma = system: SK-MEL-5 melanoma
MALME-3M melanoma = system: MALME-3M melanoma
M14 melanoma = system: M14 melanoma
NCI-H23 lung = system: NCI-H23 lung
IGROV1 ovarian = system: IGROV1 ovarian
CAKI-1 renal = system: CAKI-1 renal
OVCAR-5 ovarian = system: OVCAR-5 ovarian
BT-549 breast = system: BT-549 breast
SK-MEL-2 melanoma = system: SK-MEL-2 melanoma
MDA-MB-231 breast = system: MDA-MB-231 breast
SF-295 CNS = system: SF-295 CNS
LOX IMVI melanoma = system: LOX IMVI melanoma
DU-145 prostate = system: DU-145 prostate
CCRF-CEM leukemia = system: CCRF-CEM leukemia
UACC-62 melanoma = system: UACC-62 melanoma
MCF7 breast = system: MCF7 breast
SNB-19 CNS = system: SNB-19 CNS
MOLT-4 leukemia = system: MOLT-4 leukemia
MDA-MB-468 breast = system: MDA-MB-468 breast
A498 renal = system: A498 renal

SMILES: Cc1c(COc2cc(OCc3cccc(C#N)c3)c(CN3C[C@H](O)C[C@@H]3C(=O)O)cc2Cl)cccc1-c1ccc2c(c1)OCCO2
- GI50 (OVCAR-4 ovarian): 4.03 µM
- TGI (OVCAR-4 ovarian): 16 µM
- GI50 (UO-31 renal): 1.93 µM
- TGI (UO-31 renal): 3.79 µM
- GI50 (HT29 colon): 2.42 µM
- TGI (HT29 colon): 5.77 µM
- GI50 (NCI-H322M lung): 7.65 µM
- TGI (NCI-H322M lung): 20.2 µM
- GI50 (SN12C renal): 5.41 µM
- TGI (SN12C renal): 16.4 µM
- GI50 (NCI-H226 lung): 2.6 µM
- TGI (NCI-H226 lung): 7.19 µM
- GI50 (A549 NSCLC): 10.6 µM
- TGI (A549 NSCLC): 22.5 µM
- GI50 (OVCAR-3 ovarian): 2.37 µM
- TGI (OVCAR-3 ovarian): 6.1 µM
- GI50 (HCC-2998 colon): 1.47 µM
- TGI (HCC-2998 colon): 3.59 µM
- GI50 (SK-MEL-5 melanoma): 1.72 µM
- TGI (SK-MEL-5 melanoma): 4.31 µM
- GI50 (MALME-3M melanoma): 5.72 µM
- TGI (MALME-3M melanoma): 17.5 µM
- GI50 (M14 melanoma): 3.64 µM
- TGI (M14 melanoma): 11.6 µM
- GI50 (NCI-H23 lung): 10.4 µM
- TGI (NCI-H23 lung): 22.2 µM
- GI50 (IGROV1 ovarian): 3.93 µM
- TGI (IGROV1 ovarian): 14.2 µM
- GI50 (CAKI-1 renal): 6.69 µM
- TGI (CAKI-1 renal): 18.8 µM
- GI50 (OVCAR-5 ovarian): 15 µM
- TGI (OVCAR-5 ovarian): 28.2 µM
- GI50 (BT-549 breast): 3.4 µM
- TGI (BT-549 breast): 12 µM
- GI50 (SK-MEL-2 melanoma): 1.93 µM
- TGI (SK-MEL-2 melanoma): 3.76 µM
- GI50 (MDA-MB-231 breast): 3.23 µM
- TGI (MDA-MB-231 breast): 9.47 µM
- GI50 (SF-295 CNS): 3.09 µM
- TGI (SF-295 CNS): 8.92 µM
- GI50 (LOX IMVI melanoma): 2.68 µM
- TGI (LOX IMVI melanoma): 6.63 µM
- GI50 (DU-145 prostate): 7.96 µM
- TGI (DU-145 prostate): 20.5 µM
- GI50 (CCRF-CEM leukemia): 1.81 µM
- TGI (CCRF-CEM leukemia): 3.26 µM
- GI50 (UACC-62 melanoma): 2.3 µM
- TGI (UACC-62 melanoma): 5.05 µM
- GI50 (MCF7 breast): 2.34 µM
- TGI (MCF7 breast): 6.63 µM
- GI50 (SNB-19 CNS): 4.11 µM
- TGI (SNB-19 CNS): 13.5 µM
- GI50 (MOLT-4 leukemia): 1.77 µM
- TGI (MOLT-4 leukemia): 3.16 µM
- GI50 (MDA-MB-468 breast): 2.7 µM
- TGI (MDA-MB-468 breast): 6.92 µM
- GI50 (A498 renal): 3.27 µM
